Results reported in US20250375461A1, “IDENTIFICATION OF A NEW POTENT INHIBITOR OF MYCOBACTERIAL GROWTH” (priority 2024, published 2025).
Values after ≈ are worked out from the molar mass of the structure shown. Read-outs that look alike come from different tables or passages of the source.

Experiments:
M. smegmatis [1] = assay: MIC assay: M. smegmatis with BI.aada; format: cell-based; conditions: Mycolicibacterium smegmatis
Description: FIG. 4, FIG. 5, and FIG. 6 show enlarged views of MIC Assay: M. smegmatis with BI.aada.
(§1) In FIG. 1, […]=0.5×MIC. […] Magnification is 1000×. The compound BI.aada also has an MIC of […] against the gram-negative E. coli WO0153, which has a leaky outer membrane, and no activity against E. coli K12, which has a normal membrane. […] The stubby phenotype is similar to that observed with NAG-thiazoline (lytic transglycosylase inhibitor) with E. coli. In FIG. 3, purple: no growth; pink: bacterial growth; and MIC determined as lowest concentration that inhibits growth: 50 μM.

M. absescus = assay: MIC against M. absescus; format: cell-based
M. avium = assay: MIC against M. avium; format: cell-based; conditions: Mycobacterium avium
E. coli WO0153 [2] = assay: MIC assay: E. coli WO0153 (leaky outer membrane); format: cell-based
Description: as §1

E. coli K12 = assay: Activity against E. coli K12 (normal membrane); format: cell-based
Description: as §1

M. smegmatis [3] = assay: Microscopy of M. smegmatis in presence of BI.aada; format: cell-based
Description: as §1

E. coli WO0153 [4] = assay: Microscopy of E. coli WO0153 in presence of BI.aada; format: cell-based
Description: as §1

Bacillus cereus = assay: Resazurin microtiter whole cell assay, MIC, B. cereus; format: cell-based
Description: Each Ugi reaction was carried out using either propargyl amine or propiolic acid as the alkyne component to provide either propionamides or N-propargyl amides as the diamide products. While Ugi-reactions can sometimes require prolonged reaction times, we identified conditions that reduced the reaction time to 4-5 hours at elevated temperature and in many cases proceeded to completion, enabling use of the Ugi product directly in the next reaction.^49-51 The Ugi-derived terminal alkynes were then subjected to a copper accelerated azide-alkyne coupling reaction using a redox couple of copper powder and copper (II) sulfate. To further facilitate synthesis of the library we simplified the purification of the compounds by using the alkyne building blocks in excess for the copper accelerated azide-alkyne coupling reaction. This ensured complete consumption of the azido sugar 1, and the unreacted alkyne residue could be easily removed using a silica plug after the reaction, eliminating the need for column chromatography. Removal of trace copper salts from the reaction was carried out by incubating the reaction solution with a commercially available copper chelating resin prior to purification using the silica plug. The library of GNTs was screened for its ability to inhibit the growth of a panel of different Gram-positive bacteria. […]

B. cereus = assay: Standard bactericidal assay (colony counts), B. cereus; format: cell-based
Description: The library was initially screened against all test organisms at a single concentration (250 μM) (ESIt). This high initial concentration was chosen as many soluble derivatives of PG bind to bacterial autolysins with KD values in the high micromolar range.^53 Compounds showing at least 40% inhibition in growth were selected for further investigation. […] We identified two compounds that inhibited the growth of Bacillus cereus and Bacillus subtilis in the micromolar range (FIG. 9). […] Both BI.abcb and BI.fgba were screened in a standard bactericidal assay.^54 Briefly, B. subtilis and B. cereus were grown in either the absence or presence of inhibitor (at the MIC) for 4 hours.
The cells were harvested, washed and subject to serial dilution prior to plating on nutrient broth agar.

Gram-negative bacteria = conditions: cited from earlier work
E. coli = conditions: NAG thiazoline treatment; cited from earlier work

**Q.** With `CCCCNC(=O)C(C(C)C)N(CC(c1ccccc1)c1ccccc1)C(=O)c1cn(C2OC(CO)[C@@H](O)C(O)C2NC(C)=O)nn1` (stereo partly drawn) [BI.aada] as the molecule, how does the MIC (M. smegmatis [1]) read?
**A.** 0.05 µM (≈ 0.0325 µg/mL)

**Q.** And the MIC (M. absescus)?
**A.** < 0.5 µM

**Q.** And the MIC (M. absescus; Feature 15)?
**A.** < 0.5 µM

**Q.** And the MIC (M. avium)?
**A.** < 0.5 µM

**Q.** What about the MIC (E. coli WO0153 [2]; Escherichia coli, WO0153, read-out: MIC determined as lowest concentration that inhibits growth) of the same molecule?
**A.** 50 µM (≈ 32.5 µg/mL)

**Q.** And the MIC (E. coli WO0153 [2]; Escherichia coli, E. coli WO0153, leaky outer membrane, read-out: MIC)?
**A.** 70 µM (≈ 45.6 µg/mL)

**Q.** And the MIC (E. coli WO0153 [2]; Gram negative E. coli WO0153, Feature 16)?
**A.** 70 µM (≈ 45.6 µg/mL)

**Q.** And the “activity against E. coli K12” value (E. coli K12)?
**A.** no activity

**Q.** What about the “phenotype in FIG. 1” value (M. smegmatis [3]; 25 nM=0.5×MIC, magnification 1000×) of the same molecule?
**A.** aberrant division occurring along side wall

**Q.** What about the “cell morphology (microscopy)” value (M. smegmatis [3]; M. smegmatis in presence of BI.aada) of the same molecule?
**A.** altered cell morphology

**Q.** What about the “cell morphology (microscopy)” value (E. coli WO0153 [4]; E. coli WO0153 in presence of BI.aada) of the same molecule?
**A.** altered cell morphology

**Q.** What about the “phenotype in FIG. 2” value (E. coli WO0153 [4]; sub-MIC treated E. coli WO153, 50 µM BI.aada, compared to control) of the same molecule?
**A.** clumping phenotype

**Q.** With `COc1ccc(C(C(=O)NCc2ccccc2)N(Cc2ccccc2)C(=O)c2cn(C3OC(CO)C(O)C(O)C3NC(C)=O)nn2)cc1` (stereo not drawn) [BI.abcb] as the molecule, how does the MIC (Bacillus cereus) read?
**A.** 60 µM (≈ 39.5 µg/mL)

**Q.** And the “nature of antibacterial action” value (B. cereus; colony counts similar to controls)?
**A.** bacteriostatic

**Q.** What about the “Colony counts for growth in the presence of compound” value (B. cereus; inhibitor at the MIC, 4 hours) of the same molecule?
**A.** 7.00±1.70×10^8 cfu mL^−1

**Q.** Which “minimum inhibitory concentration in whole cell assays” value (Gram-negative bacteria) does the source give for `CC1=N[C@@H]2[C@@H](O)[C@H](O)[C@@H](CO)O[C@@H]2S1` [NAG thiazoline] here?
**A.** do not demonstrate a measurable minimum inhibitory concentration

**Q.** And the “effect on E. coli cells” value (E. coli)?
**A.** formation of shorter cells without affecting cell viability

**Q.** With `CC(=O)N[C@H]1[C@H](O[C@H]2C[C@@H](C(=O)NCCS(=O)(=O)O)N[C@@H]2CO)O[C@H](CO)[C@@H](OS(=O)(=O)O)[C@@H]1O` [bulgecin A] as the molecule, how does the “minimum inhibitory concentration in whole cell assays” value (Gram-negative bacteria) read?
**A.** do not demonstrate a measurable minimum inhibitory concentration
